Results published in the supplement of paper PMC8967900.

Columns and labels:
Assay in all cases: selective drug sensitivity score (sDSS, relative to normal bone marrow) (sDSS (score)); higher = more potent and effective on the cell line relative to normal bone marrow cells
Settings in all cases: 72 h
KASUMI-2 = test system: KASUMI-2
COG-LL-402h = test system: COG-LL-402h
SUP-B15 = test system: SUP-B15
ALL-SIL = test system: ALL-SIL
697 = test system: 697
LC4-1 = test system: LC4-1
TANOUE = test system: TANOUE
MHH-CALL-2 = test system: MHH-CALL-2
COG-LL-319h = test system: COG-LL-319h
MOLT-14 = test system: MOLT-14
KASUMI-10 = test system: KASUMI-10
PF-382 = test system: PF-382
MOLT-4 = test system: MOLT-4
COG-LL-317 = test system: COG-LL-317
P12-ICHIKAWA = test system: P12-ICHIKAWA
NALL-1 = test system: NALL-1
MHH-CALL-4 = test system: MHH-CALL-4
NALM-6 = test system: NALM-6
ALL-PO = test system: ALL-PO
COG-LL-332h = test system: COG-LL-332h
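Also: ALL cell lines in 384-well plates, five doses spanning 10,000-fold, each plate scaled between vehicle and 100 µmol/L benzalkonium chloride controls, sDSS an adapted area-under-curve metric.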

Row | Structure (SMILES) | selective drug sensitivity score (KASUMI-2) | selective drug sensitivity score (COG-LL-402h) | selective drug sensitivity score (SUP-B15) | selective drug sensitivity score (ALL-SIL) | selective drug sensitivity score 697 | selective drug sensitivity score (LC4-1) | selective drug sensitivity score (TANOUE) | selective drug sensitivity score (MHH-CALL-2) | selective drug sensitivity score (COG-LL-319h) | selective drug sensitivity score (MOLT-14) | selective drug sensitivity score (KASUMI-10) | selective drug sensitivity score (PF-382) | selective drug sensitivity score (MOLT-4) | selective drug sensitivity score (COG-LL-317) | selective drug sensitivity score (P12-ICHIKAWA) | selective drug sensitivity score (NALL-1) | selective drug sensitivity score (MHH-CALL-4) | selective drug sensitivity score (NALM-6) | selective drug sensitivity score (ALL-PO) | selective drug sensitivity score (COG-LL-332h)
1 | CN(C)Cc1ccc(S(=O)(=O)n2ccc(/C=C/C(=O)NO)c2)cc1 [Resminostat] (top concentration 10000 nM) | 11.7 | 10.2 | 9.74 | 6.64 | 7.74 | 4.54 | -4.16 | 8.14 | 12.2 | 9.74 | 5.94 | 2.64 | 1.24 | 5.14 | 7.34 | -4.46 | 7.04 | 1.34 | 6.34 | 1.34
2 | COc1cc(OC)c(/C=C/S(=O)(=O)Cc2ccc(OC)c(NCC(=O)O)c2)c(OC)c1 [Rigosertib] (top concentration 10000 nM) | 14.6 | 14.2 | 14.6 | 13.1 | 17 | 16.6 | -5.04 | 15.2 | 4.96 | 17.9 | 12 | 10.9 | 15.9 | 14.3 | 10.4 | 16.5 | 8.26 | 16.1 | 11.2 | 15.8
3 | COc1ccc(CCc2nc3cc(-c4c(C)noc4C)ccc3n2C[C@H](C)N2CCOCC2)cc1Cl [SGC-CBP30] (top concentration 25000 nM) | -2.12 | 7.78 | 6.28 | 4.68 | 2.48 | 7.48 | -3.12 | 5.88 | 16.4 | 4.58 | 4.78 | 3.08 | 1.88 | 5.98 | 1.68 | -0.62 | 1.68 | 0.08 | 4.38 | 0.28
4 | CCS(=O)(=O)c1cccc(-c2cc(C(=O)NC3CCN(C)CC3)c(C)c3[nH]c4ncc(C)cc4c23)c1 [TAK-901] (top concentration 1000 nM) | 7.56 | 8.96 | 11 | 15.3 | 12.8 | 10.8 | -4.74 | 7.26 | 10.5 | 7.26 | 9.76 | 7.16 | 10.6 | 11.7 | 12.3 | 11.8 | 3.16 | 9.66 | 7.76 | 11.3
5 | Nc1nc(NC2CC2)cc(-c2cccc(Cl)c2Cl)n1 [TH588] (top concentration 25000 nM) | -0.58 | 3.72 | 7.62 | 14.7 | 8.72 | 8.72 | -0.58 | -0.58 | 3.82 | 10.8 | 6.22 | 6.72 | 9.12 | 7.72 | 3.72 | -0.28 | -0.58 | -0.58 | 10.5 | 6.82
6 | CC(=O)Nc1ccc(C(=O)Nc2ccccc2N)cc1 [Tacedinaline] (top concentration 1000 nM) | -0.02 | 0.38 | 4.58 | 6.08 | 1.88 | 1.18 | -0.02 | 7.68 | 1.98 | -0.02 | 0.98 | -0.02 | 0.08 | -0.02 | 0.68 | -0.02 | 9.18 | -0.02 | -0.02 | -0.02
7 | Cn1ncnc1[C@H]1c2n[nH]c(=O)c3cc(F)cc(c23)N[C@@H]1c1ccc(F)cc1 [Talazoparib] (top concentration 1000 nM) | 13.2 | 11.1 | 20.1 | 3.48 | 15.8 | 3.18 | -4.92 | 9.48 | 21.3 | 10.5 | 3.38 | -3.62 | 9.68 | 19.7 | -0.52 | 8.78 | 10.2 | 3.78 | 4.78 | 6.58
8 | COc1cccc2c1c(O)c(C(=O)N(C)c1ccc(C(F)(F)F)cc1)c(=O)n2C [Tasquinimod] (top concentration 10000 nM) | -0.42 | -0.42 | 2.78 | 3.48 | -0.42 | -0.42 | 1.58 | 0.88 | 16.6 | -0.42 | -0.42 | -0.32 | -0.42 | 0.28 | -0.42 | -0.42 | 0.68 | -0.42 | -0.32 | 0.48
9 | Nc1nc2[nH]cnc2c(=S)[nH]1 [Thioguanine] (top concentration 10000 nM) | 2.54 | 6.34 | 19.2 | 12.8 | 8.84 | 12.4 | 5.54 | 11.9 | 18.6 | 15.7 | 5.24 | 12 | 14.2 | 23 | 13.6 | 8.64 | 4.34 | 10.2 | 11.2 | 14.5
10 | CC#CC(=O)N1CC[C@@H](n2c(=O)n(-c3ccc(Oc4ccccc4)cc3)c3c(N)ncnc32)C1 [Tirabrutinib] (top concentration 1000 nM) | 2.9 | 5.2 | 14.7 | 0 | 0 | 0.7 | 0 | 0 | 3.7 | 0 | 0 | 0 | 0 | 0 | 0 | 3.7 | 1.5 | 0 | 0 | 1.8
11 | CC(C)C[C@@H](C(=O)N[C@H](C(=O)OC1CCCC1)c1ccccc1)[C@H](O)C(=O)NO [Tosedostat] (top concentration 10000 nM) | -5.44 | -0.74 | 11 | 1.06 | -1.54 | 2.26 | -5.24 | 5.76 | 3.96 | 6.46 | 7.06 | 5.66 | -0.54 | 14.9 | -0.24 | 0.86 | 1.26 | -1.04 | 6.96 | 2.26
12 | CS(=O)(=O)c1ccc(-c2cnc(N)c(C(=O)Nc3ccccc3)n2)cc1 [VE-821] (top concentration 10000 nM) | -0.66 | 0.34 | 6.94 | 4.94 | -0.66 | 4.64 | 0.64 | 7.84 | 11.2 | 0.74 | 2.54 | -0.56 | 3.94 | 12.7 | 3.14 | -0.66 | -0.66 | -0.66 | 2.64 | 4.74
13 | CNC(=O)c1ccccc1Nc1cc(Nc2ccc(N3CCOCC3)cc2OC)ncc1C(F)(F)F [VS-4718] (top concentration 10000 nM) | -5 | -4.5 | -3 | 4.3 | 0.7 | -3 | -5 | 8.9 | -5 | 1.1 | 11.2 | -0.3 | 1.9 | -0.8 | 1.7 | 8.7 | 6.4 | 0.4 | 14 | -0.3
14 | Cc1cccc(-c2[nH]c(CNc3ccccc3F)nc2-c2ccc3ncnn3c2)n1 [Vactosertib (TEW-7197)] (top concentration 2500 nM) | -0.5 | 1.1 | 9 | -0.5 | -0.5 | -0.1 | -0.5 | -0.3 | 7.2 | 0.8 | -0.5 | -0.5 | 2.3 | -0.3 | -0.5 | -0.4 | 7.2 | -0.5 | -0.5 | -0.2
15 | O=C(/C=C\n1cnc(-c2cc(C(F)(F)F)cc(C(F)(F)F)c2)n1)NNc1ccccn1 [Verdinexor] (top concentration 1000 nM) | 12.9 | 9.34 | 11.2 | 3.74 | 6.34 | 1.94 | -6.96 | 1.84 | 11.3 | 13.3 | 1.54 | 6.54 | 9.74 | 12.5 | 5.64 | 0.64 | 1.84 | 11.7 | 7.54 | 7.74
16 | CC[C@@H]1C(=O)N(C)c2cnc(Nc3ccc(C(=O)N[C@H]4CC[C@H](N5CCN(CC6CC6)CC5)CC4)cc3OC)nc2N1C(C)C [Volasertib] (top concentration 1000 nM) | 5.7 | 11 | 19.2 | 12.7 | 12.1 | 13.4 | -7 | 10.6 | 14.9 | 13.4 | 8 | 13.6 | 11.3 | 16.7 | 11.5 | 12.3 | 0.9 | 11.9 | 16.1 | 12
17 | O=C(CCCCCCC(=O)Nc1ccccc1)NO [Vorinostat] (top concentration 10000 nM) | 17.6 | 10.2 | 11.9 | 7.5 | 10.1 | 8.2 | -2.6 | 8.7 | 11.5 | 9.6 | 4.6 | 4.1 | 5.8 | 8.2 | 6.6 | -3.5 | 3.9 | 2.3 | 10.1 | 3.4
